# Assay results as given in ChEMBL document CHEMBL3885861, “Open TG-GATES”.
# Organism: Rattus norvegicus
# Test: Open TG-GATES - Regimen: Single
# Assay type: toxicity, organism-based, Sprague-Dawley
# Parameters: regimen Single, gender Male, age 6 weeks
# Details: in vivo, iv, 0 mg/kg, route intravenous injection, dose level Control; for APTT / Bas / Eos / Fbg / Hb / Ht / Lym / MCH / MCHC / MCV / Mono / Neu / PT / Plat / RBC / Ret / WBC: tissue Blood; for KIDNEY_L / KIDNEY_R / KIDNEY_TOTAL: tissue Kidney; for LIVER: tissue Liver; for A/G / ALP / ALT / AST / BUN / CRE / Ca / Cl / DBIL / GLC / IP / K / LDH / Na / PL / RALB / TBIL / TC / TG / TP / gamma-GTP: tissue Plasma
smiles,measurement,setting,value
NCCBr [BROMOETHANAMINE],TERMINAL_BW,3 h,221.8 g
same,APTT,3 h,22.1 s
same,Bas,3 h,0%
same,Eos,3 h,0.6%
same,Fbg,3 h,305.4 mg/dL
same,Hb,3 h,13.4 g/dL
same,Ht,3 h,39.5%
same,Lym,3 h,82.4%
same,MCH,3 h,22.5 pg
same,MCHC,3 h,33.9%
same,MCV,3 h,66.4 fL
same,Mono,3 h,2.2%
same,Neu,3 h,14.2%
same,PT,3 h,16.2 s
same,Plat,3 h,118.2 x10_4/uL
same,RBC,3 h,594.4 x10_4/ul
same,Ret,3 h,6.3%
same,WBC,3 h,94.3 x10_2/uL
same,KIDNEY_L,3 h,1 g
same,KIDNEY_R,3 h,1 g
same,KIDNEY_TOTAL,3 h,2 g
same,LIVER,3 h,10.5 g
same,A/G,3 h,1.2
same,ALP,3 h,1743.8 IU/L
same,ALT,3 h,43.2 IU/L
same,AST,3 h,76.2 IU/L
same,BUN,3 h,13.2 mg/dL
same,CRE,3 h,0.1 mg/dL
same,Ca,3 h,10.8 mg/dL
same,Cl,3 h,105.4 meq/L
same,DBIL,3 h,0 mg/dL
same,GLC,3 h,188.4 mg/dL
same,IP,3 h,7.5 mg/dL
same,K,3 h,4.1 meq/L
same,LDH,3 h,174.6 IU/L
same,Na,3 h,142.2 meq/L
same,PL,3 h,131.8 mg/dL
same,RALB,3 h,3 g/dL
same,TBIL,3 h,0.018 mg/dL
same,TC,3 h,70.2 mg/dL
same,TG,3 h,79.8 mg/dL
same,TP,3 h,5.4 g/dL
same,gamma-GTP,3 h,1.6 IU/L
same,TERMINAL_BW,6 h,213.6 g
same,APTT,6 h,23.7 s
same,Bas,6 h,0%
same,Eos,6 h,0.8%
same,Fbg,6 h,313.6 mg/dL
same,Hb,6 h,13.5 g/dL
same,Ht,6 h,39.2%
same,Lym,6 h,80%
same,MCH,6 h,21.6 pg
same,MCHC,6 h,34.4%
same,MCV,6 h,62.7 fL
same,Mono,6 h,3%
same,Neu,6 h,15.8%
same,PT,6 h,15.8 s
same,Plat,6 h,121.6 x10_4/uL
same,RBC,6 h,624.8 x10_4/ul
same,Ret,6 h,6.1%
same,WBC,6 h,83.9 x10_2/uL
same,KIDNEY_L,6 h,0.9 g
same,KIDNEY_R,6 h,1 g
same,KIDNEY_TOTAL,6 h,1.9 g
same,LIVER,6 h,9.2 g
same,A/G,6 h,1.1
same,ALP,6 h,1411.4 IU/L
same,ALT,6 h,39 IU/L
same,AST,6 h,71.2 IU/L
same,BUN,6 h,11 mg/dL
same,CRE,6 h,0.1 mg/dL
same,Ca,6 h,10.3 mg/dL
same,Cl,6 h,104.6 meq/L
same,DBIL,6 h,0 mg/dL
same,GLC,6 h,195.8 mg/dL
same,IP,6 h,9.7 mg/dL
same,K,6 h,4.1 meq/L
same,LDH,6 h,189.6 IU/L
same,Na,6 h,141 meq/L
same,PL,6 h,145.2 mg/dL
same,RALB,6 h,2.9 g/dL
same,TBIL,6 h,0.014 mg/dL
same,TC,6 h,87.2 mg/dL
same,TG,6 h,47.8 mg/dL
same,TP,6 h,5.4 g/dL
same,gamma-GTP,6 h,1.6 IU/L
